Experimental findings from patent US4049808A, “2-Phenyl ethyl morpholine compounds” (Imperial Chemical Industries Limited, priority 1974, dated 1977) are described below.

The nature of data set [1]: Oral LD50 in mice. As to conditions: mouse, in vivo.
The subject of data set [2] is reserpine-induced hypothermia. Briefly: Reversal of reserpine-induced hypothermia in mice (RHL test). It counts as in vivo. The note with it: reserpine 2 mg./kg. s.c., T0 to T4 (4 hours). The protocol:
The reversal of reserpine-induced hypothermia, known as the RHL test, is carried out as follows:
Mice are kept in a constant temperature room maintained at 21 ± 1° C. Each member of groups of 4 mice is given reserpine (2 mg. of base per kg. bodyweight, given subcutaneously as the acetate). Seventeen hours later the oesophageal temperature (T0) of each mouse is recorded by means of an orally-inserted probe coupled to an electric thermometer which is calibrated in degrees Centrigrade and which can be read to 0.1° C. Immediately after the temperature measurement the mice are dosed orally with the test compound, or with imipramine, each mouse in a group of 4 being given the same substance, and the oesophageal temperatures are again recorded after 4 hours (T4). The compound under test is dosed at serial dilutions, e.g. 100, 30, 10, 3, 1, 0.3, 0.1 mg./kg. Imipramine is used as the control. […] At 1 mg./kg. it produces an average rise of 1.7° C. A test compound which at a certain does level gives a rise in temperature equal to or greater than that given by 1 mg./kg. of imipramine, dosed to a different set of mice on the same day, is adjudged "active" at that dose.

One may read the LD50 as the dose at which mortality reaches 50%. For the compound `c1ccc(Oc2ccccc2CCC2CNCCO2)cc1` (stereo not drawn) [2-[β-(2-phenoxyphenyl)ethyl]morpholine], the LD50 in data set [1] came to 1000 mg/kg.
In the case of `Cc1ccccc1CCC1CNCCO1` (stereo not drawn) [2-[β-(2-methylphenyl)ethyl]morpholine], in data set [1], the 50% lethal dose (LD50) was determined as 550 mg/kg.
Regarding `CN(C)CCCN1c2ccccc2CCc2ccccc21` [imipramine], the “average rise in the temperature of a reserpinised mouse” value in data set [2] (imipramine 1 mg./kg. oral) is 1.7 °C; in data set [2] (imipramine 3 mg./kg. oral) it was 3 °C.
